Measurements published in patent US10072304B2, “Nuclear localization of Src-family tyrosine kinases is required for growth factor-induced euchromatinization” (National University Corporation Chiba University, priority 2009, dated 2018).

System: nuclear SFKs
Assay: In vitro tyrosine phosphorylation of purified nuclei (kinase activity of nuclear SFKs)
Format: biochemical, monkey
Conditions: purified COS-1 nuclei, 10 μM PP2, FIGS. 30 and 31
Procedure: Nuclei were prepared as described previously. In brief, COS-1 and HeLa cells were swollen in hypotonic buffer (10 mM HEPES-KOH, pH 7.9, 1.5 mM MgCl2, 10 mM KCl, 0.5 mM DTT, and 1 mM Na3VO4) containing protease inhibitors (2 mM phenylmethylsulfonyl fluoride, 50 μg/mL aprotinin, 100 μM leupeptin, and 25 μM pepstatin A) at 4° C. for 20 min, followed by homogenization with 20 strokes in a tight-fitting 1-ml Dounce homogenizer. After cell suspension was centrifuged at 200×g for 5 min, cell pellets were resuspended in 0.25 M sucrose containing protease inhibitors, 10 mM MgCl2, and 1 mM Na3VO4. […]
Confocal and Nomarski differential-interference-contrast images were obtained using a Fluoview FV500 confocal laser scanning microscope with a 40×1.00 NA oil and a 100×1.35 NA oil immersion objective (Olympus, Tokyo) and an LSM 510 confocal laser scanning microscope with a 63×1.40 NA oil immersion objective (Zeiss), as described. […] Emission signals were detected between 505 and 525 nm for fluorescein, at more than 560 nm for rhodamine and more than 610 nm for PI [44]. […] Fluorescence intensity plots of anti-histone H3K4me3, anti-ATF-2 pT69/71 and anti-HP1α antibody and PI staining (see FIGS. 18B, 19B, and 20B, respectively) were generated using Fluoview version 4.3 software (Olympus, Tokyo). […]

ATP-induced increase in nuclear tyrosine phosphorylation in purified nuclei: significantly inhibited
Structure (SMILES): CC(C)(C)n1nc(-c2ccc(Cl)cc2)c2c(N)ncnc21 [PP2]
